Data taken from patent US20210169959A1, “TERMINALIA FERDINANDIANA EXTRACT AND PRODUCTS CONTAINING EXTRACT OF TERMINALIA FERDINANDIANA FOR ANTIMICROBIAL OR ANTIBACTERIAL APPLICATIONS” (RISING PHOENIX INDUSTRIES PTY LTD, priority 2017, published 2021).
≈ marks a conversion by molar mass, not a printed value. Where “and” joins values, the source holds several entries; their conditions need not be identical. Identical values can stand only once. Like-named read-outs stand apart in the source and are kept apart here.

What was measured:
[1] = system: Giardia duodenalis trophozoites; assay: G. duodenalis trophozoite proliferation (strain not specified or several strains together); format: cell-based; details: for inhibition at 300 µg/mL: Giardia duodenalis; for inhibition at 300 µg/mL / inhibition of trophozoite proliferation: pure compounds at 300 μg/mL; for IC50: compound alone, over the different strains
[2] = system: Giardia duodenalis trophozoites, sheep S2 strain; assay: G. duodenalis trophozoite proliferation, sheep S2 strain; details: for IC50 / IC50 Single Compound: compound alone; for Class of Interaction / ΣFIC50: in combination with ascorbic acid
[3] = system: Giardia duodenalis trophozoites, ATCC203333; assay: G. duodenalis trophozoite proliferation, ATCC203333 (metronidazole sensitive); details: for Class of Interaction / ΣFIC50: in combination with ascorbic acid
[4] = system: Giardia duodenalis trophozoites, ATCC PRA-251; assay: G. duodenalis trophozoite proliferation, ATCC PRA-251 (metronidazole resistant); details: for IC50: read-out: IC50 Single Compound; for inhibition of the metronidazole resistant strain (in words): pure compounds at 300 μg/mL; for Class of Interaction / ΣFIC50: in combination with ascorbic acid
Artemia nauplii = details: for Toxicity Compound Alone ALA: 24 hours exposure; for Toxicity Compound/ascorbic acid combination ALA: in combination with ascorbic acid
human dermal fibroblast = details: for Toxicity Compound/ascorbic acid combination HDF: in combination with ascorbic acid
Clostridium perfringens = assay: microbe, parasite or virus in culture; format: cell-based
Bacillus anthracis = assay: microbe, parasite or virus in culture; format: cell-based
[5] = system: Artemia franciscana nauplii; details: in vivo
[6] = metronidazole sensitive G. duodenalis strain
[7] = Giardia duodenalis, in Ovis aries, read-out: IC50 Single Compound, Sheep S2 Strain
[8] = Giardia duodenalis, ATCC203333, read-out: IC50 Single Compound
[9] = all three G. duodenalis strains
[10] = compound alone, 24 hours exposure
[11] = read-out: IC50 Single Compound, Sheep S2 Strain
[12] = read-out: IC50 Single Compound, ATCC203333, compound alone

Molecule	inhibition of trophozoite proliferation [1, 9]	Toxicity Compound Alone ALA (Artemia nauplii)	Toxicity Compound/ascorbic acid combination ALA (Artemia nauplii) [µg/mL]	Toxicity Compound Alone HDF (human dermal fibroblast; [10])	Toxicity Compound/ascorbic acid combination HDF (human dermal fibroblast) [µg/mL]	IC50 Single Compound ([2]; Sheep S2 Strain) [µg/mL]	Class of Interaction ([2]; Sheep S2 Strain)	ΣFIC50 ([2]; Sheep S2 Strain)	Class of Interaction ([3]; ATCC203333)	ΣFIC50 ([3]; ATCC203333)	Class of Interaction ([4]; ATCC PRA-251)	ΣFIC50 ([4]; ATCC PRA-251)	other results
O=C1O[C@H]([C@@H](O)CO)C(O)=C1O [Ascorbic acid, ascorbic acid]	–	–	–	–	–	–	–	–	–	–	–	–	inhibition at 300 µg/mL [1, 6]: ~15%; IC50 [2, 7]: 1870 µg/mL and 10.6 mM; IC50 [3, 8]: 1910 µg/mL and 10.8 mM; IC50 ([4]; Giardia duodenalis): 2850 µg/mL and 16.2 mM; inhibition of the metronidazole resistant strain (in words) [4]: ineffective inhibitors
O=C(O)C[C@H](C(=O)O)[C@H]1c2c(cc(O)c(O)c2O)C(=O)O[C@@H]1C(=O)O [Chebulic acid, chebulic acid]	~40%	165 µg/mL	224	380 µg/mL	375	1283 (≈ 3.6 mM)	Additive	0.56	Additive	0.6	Additive	0.52	IC50 [2, 11]: 3.6 mM; IC50 Single Compound ([3]; ATCC203333, compound alone): 985 µg/mL (≈ 2.76 mM); IC50 [3, 12]: 2.76 mM; IC50 Single Compound ([4]; ATCC PRA-251, compound alone): 1220 µg/mL (≈ 3.42 mM); IC50 ([4]; ATCC PRA-251, compound alone): 3.42 mM
O=C(O)[C@H]1O[C@@H](Oc2cccc(O)c2O)[C@H](O)[C@@H](O)[C@@H]1O [DPGA, 2,3-dihydroxyphenyl B-D-glucopyranosiduronic acid]	100%	CND	>500	CND	>500	47 (≈ 0.156 mM)	Synergy	0.11	Synergy	0.18	Synergy	0.18	ratios producing synergistic inhibition (isobologram) ([1]; DPGA:ascorbic acid combinations, metronidazole sensitive strains): ≤ 60 % DPGA; IC50 as share of the IC50 of ascorbic acid ([1]; components tested separately): approximately 5%; potency relative to ascorbic acid ([1]; components tested separately): ~20 times; IC50 [1]: 38 to 72 µg/mL; IC50 ([1]; read-out: IC50): ≥ 0.126 mM and 0.126 to 0.238 mM; IC50 [2, 11]: 0.156 mM; IC50 Single Compound ([3]; ATCC203333, compound alone): 38 µg/mL (≈ 0.126 mM); IC50 [3, 12]: 0.126 mM; IC50 Single Compound ([4]; ATCC PRA-251, compound alone): 72 µg/mL (≈ 0.238 mM); ratios with synergistic interaction (isobologram) ([4]; DPGA:ascorbic acid combinations, metronidazole resistant strain): 30-50 % DPGA; IC50 ([4]; ATCC PRA-251, compound alone): 0.238 mM
O=C(O)c1cc(O)c(O)c(O)c1 [Gallic acid, gallic acid]	–	132 µg/mL	147	–	–	1156 (≈ 6.8 mM)	Synergy	0.15	Synergy	0.38	Synergy	0.32	inhibition at 300 µg/mL [1, 9]: ~50%; ratios inducing synergistic responses (isobologram) ([1]; gallic acid:ascorbic acid combinations, all three strains): 30-60 % gallic acid; Toxicity Compound Alone HDF (human dermal fibroblast; human, 24 h): 320 µg/mL; IC50 [2, 7]: 1150 µg/mL and 6.79 mM; IC50 [3, 8]: 1370 µg/mL and 8.04 mM; IC50 ([4]; Giardia duodenalis): 1260 µg/mL and 7.38 mM
O=C1O[C@@H]([C@H](O)[C@H](O)CO)[C@@H](O)[C@H]1O [Glucohepatonic acid lactone, glucohepatonic acid-1,4-lactone]	–	CND	>500	CND	>500	1746 (≈ 8.39 mM)	independent (independent (ΣFIC50 > 1.0-4.0))	1.19	Independent	1.57	Independent	1.25	inhibition of trophozoite proliferation [1, 6]: ~30%; IC50 [2, 11]: 9.91 mM; IC50 Single Compound ([3]; ATCC203333, compound alone): 2255 µg/mL (≈ 10.8 mM); IC50 [3, 12]: 12.8 mM; IC50 Single Compound ([4]; ATCC PRA-251, compound alone): 3536 µg/mL (≈ 17 mM); inhibition of the metronidazole resistant strain (in words) [4]: ineffective inhibitors; IC50 ([4]; ATCC PRA-251, compound alone): 20.1 mM
O=C1O[C@H](CO)[C@@H](O)[C@H](O)[C@H]1O [Gluconolactone, gluconolactone]	did not significantly affect the growth	CND	–	–	–	–	–	–	–	–	–	–	Toxicity Compound Alone HDF (human dermal fibroblast): CND
Cc1cc(OCCCC(C)(C)C(=O)O)c(C)cc1O [HMDP, 5-(4-hydroxy-2,5-dimethylphenoxy)-2,2-dimethyl-pentanoic acid]	–	CND	>500	CND	>500	–	Additive	0.69	Additive	0.81	Independent	1.1	inhibition at 300 µg/mL [1, 9]: ~20%; IC50 [2, 7]: 1840 µg/mL and 6.89 mM; IC50 [3, 8]: 1580 µg/mL and 5.96 mM; IC50 ([4]; Giardia duodenalis): 2030 µg/mL and 7.63 mM
c1ncc2[nH]cnc2n1 [Purine, purine]	did not significantly affect the growth	CND	–	–	–	–	–	–	–	–	–	–	Toxicity Compound Alone HDF (human dermal fibroblast): CND
O=C(O)[C@]1(O)C[C@@H](O)[C@@H](O)[C@H](O)C1 [Quinic acid, quinic acid]	–	CND	>500	–	–	–	Additive	0.51	Additive	0.73	Additive	0.95	inhibition at 300 µg/mL [1, 9]: ~30%; Toxicity Compound Alone HDF (human dermal fibroblast): CND; IC50 [2, 7]: 1170 µg/mL and 6.1 mM; IC50 [3, 8]: 1430 µg/mL and 7.43 mM; IC50 ([4]; Giardia duodenalis): 1760 µg/mL and 9.13 mM
O=C1O[C@H](CO)[C@@H](O)[C@H]1O [Ribolactone, ribonolactone]	did not significantly affect the growth	CND	–	CND	–	–	–	–	–	–	–	–	–
CC1(C)S[C@@H]2[C@H](NC(=O)[C@H](N)c3ccccc3)C(=O)N2[C@H]1C(=O)O [ampicillin]	–	–	–	–	–	–	–	–	–	–	–	–	zone of inhibition at 10 µg/disc (Clostridium perfringens; Clostridium perfringens, read-out: zones of inhibition): 13 ± 1 mm; zone of inhibition at 10 µg/disc (Bacillus anthracis; Bacillus anthracis, read-out: zones of inhibition): 10 ± 0.7 mm
[K+].[K+].[O]=[Cr](=[O])([O-])[O][Cr](=[O])(=[O])[O-] [potassium dichromate, Potassium dichromate, reference compound]	–	37 µg/mL	–	42 µg/mL	–	–	–	–	–	–	–	–	mortality [5]: 100%; onset of nauplii death (time of exposure) [5]: ≤ 3 h
eujavonic acid	~20%	CND	>500	CND	>500	1438	Additive	0.58	Additive	0.64	Additive	0.72	IC50 [2, 11]: 6.04 mM; IC50 Single Compound ([3]; ATCC203333, compound alone): 1683 µg/mL; IC50 [3, 12]: 7.07 mM; IC50 Single Compound ([4]; ATCC PRA-251, compound alone): 1850 µg/mL; IC50 ([4]; ATCC PRA-251, compound alone): 7.77 mM
penicillin	–	–	–	–	–	–	–	–	–	–	–	–	zones of inhibition (Clostridium perfringens; 10 μL extract per 6 mm disc, penicillin 2 μg, ampicillin 10 μg, mean ± SEM): 12.3±0.3 mm; zones of inhibition (Bacillus anthracis; 10 μL extract per 5 mm disc, penicillin 2 μg, ampicillin 10 μg, mean ± SEM): 8.3±0.6 mm
